ChEMBL document CHEMBL1201862, “PubChem BioAssay data set” (2004)
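Following 48 hours of exposure in 96-well plates, responses at five concentrations were used to interpolate endpoints linearly. At the GI50, growth is halved.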 Active and inactive are the calls of the source. Rule as the data show it: active = GI50 up to about 1.1 µM and inactive = higher.

Tests used:
Test in all cases: inhibition of tumour cell growth, NCI panel, 48 h
786-0 = tested on: 786-0
A549 = tested on: A549
BT-549 = tested on: BT-549
CCRF-CEM = tested on: CCRF-CEM
HCT-116 = tested on: HCT-116
HOP-92 = tested on: HOP-92
K562 = tested on: K562
KM12 = tested on: KM12
MDA-MB-435 = tested on: MDA-MB-435
NCI-H226 = tested on: NCI-H226
NCI-H23 = tested on: NCI-H23
NCI/ADR-RES = tested on: NCI/ADR-RES
OVCAR-4 = tested on: OVCAR-4
OVCAR-8 = tested on: OVCAR-8
SF-295 = tested on: SF-295
SNB-75 = tested on: SNB-75
SNB-78 = tested on: SNB-78
TK-10 = tested on: TK-10
U-251 = tested on: U-251
UACC-62 = tested on: UACC-62

## CN(C)c1ccc(/C=C/c2cc[n+](C)c3ccccc23)cc1
786-0
  GI50: 4.27 µM (inactive)
A549
  GI50: 3.86 µM (inactive)
BT-549
  GI50: 0.437 µM (active)
CCRF-CEM
  GI50: 1.9 µM (inactive)
HCT-116
  GI50: 1.58 µM (inactive)
HOP-92
  GI50: 2.96 µM (inactive)
K562
  GI50: 0.418 µM (active)
KM12
  GI50: 2.51 µM (inactive)
MDA-MB-435
  GI50: 2.03 µM (inactive)
NCI-H226
  GI50: 2.53 µM (inactive)
NCI-H23
  GI50: 2.11 µM (inactive)
NCI/ADR-RES
  GI50: > 100 µM (inactive)
OVCAR-4
  GI50: 5.05 µM (inactive)
OVCAR-8
  GI50: 1.53 µM (inactive)
SF-295
  GI50: 3.84 µM (inactive)
SNB-75
  GI50: 3.45 µM (inactive)
SNB-78
  GI50: 7.59 µM (inactive)
TK-10
  GI50: 3.71 µM (inactive)
U-251
  GI50: 2.75 µM (inactive)
UACC-62
  GI50: 3.13 µM (inactive)
